Measured values published in patent publication US20230407243A1, “GENETIC PLATFORM TO INVESTIGATE THE FUNCTIONS OF BACTERIAL DRUG EFFLUX PUMPS” (priority 2022, published 2023).
In brackets after ≈: the same amount, converted by molar mass. Like-named read-outs stand apart in the source and are kept apart here.

What was measured:
Format in all cases: cell-based, Escherichia coli
[1] = system: EKO-35 araC::acrB Pore; test: MIC susceptibility profiling, porinated efflux platform; settings: for Fold changes of MICs: EKO-35 araC::acr-B Pore compared to EKO-35-Pore
Summary of the method: (§1)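 Strains carry the fhuA ΔC/Δ4L pore integrated between glmS and pstS under a constitutive promoter, with pore activity checked by vancomycin susceptibility. Overnight LB cultures were adjusted in PBS pH 7.4 to OD600 ~1.0 and diluted 1/2000 into MHB II. 2-fold compound titrations were read by OD600 after 18 h at 37 °C.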

[2] = system: EKO-35 araC::acrEF Pore; test: as above; settings: for Fold changes of MICs: EKO-35 araC::acrEF Pore compared to EKO-35-Pore; for efflux pump-mediated resistance vs EKO-35-Pore: AcrEF with the pore
Summary of the method: as §1

[3] = system: EKO-35 araC::emrAB Pore; test: as above; settings: for Fold changes of MICs: EKO-35 araC::emrAB Pore compared to EKO-35-Pore
Summary of the method: as §1

[4] = system: EKO-35 araC::macAB Pore; test: as above; settings: for Fold changes of MICs: EKO-35 araC::macAB Pore compared to EKO-35-Pore
Summary of the method: as §1

[5] = system: EKO-35 araC::mdtBC Pore; test: as above; settings: for Fold changes of MICs: EKO-35 araC::mdtBC Pore compared to EKO-35-Pore
Summary of the method: as §1

[6] = system: EKO-35 araC::mdtEF Pore; test: as above; settings: for Fold changes of MICs: EKO-35 araC::mdtEF Pore compared to EKO-35-Pore; for Minimum inhibitory concentration, EKO-35 araC::mdtEF Pore: Table 14A, porinated, technical duplicate
Summary of the method: as §1

[7] = system: EKO-35 araC::mexCD Pore; test: as above; settings: for Fold changes of MICs: EKO-35 araC::mexCD Pore compared to EKO-35-Pore
Summary of the method: as §1

[8] = system: ΔtolC (empty pCA24N); test: microbe, parasite or virus in culture; settings: 0.1 mM IPTG; for MIC, ΔtolC (empty pCA24N), Chlor −: no plasmid selection; for MIC, ΔtolC (empty pCA24N), Chlor +: with chloramphenicol plasmid selection; for MIC: ΔtolC empty pCA24N
[9] = system: EKO-35 (empty pCA24N); test: microbe, parasite or virus in culture; settings: for MIC, EKO-35 (empty pCA24N), Chlor +: 4 μg/mL chloramphenicol selection; for MIC, EKO-35 (empty pCA24N), Chlor −: no plasmid selection
[10] = system: EKO-35-Pore; test: Checkerboard synergy (FICI), porinated strain
Experimental: (§2) Synergy measurement using checkerboard analysis was performed in 96-well microtiter plates using the microdilution broth method, according to CLSI guidelines (Patel J. B., 2015). The cell inocula were prepared using the colony resuspension method. The minimum inhibitory concentrations (MICs) were defined as the lowest concentration that provided no growth, as determined by measurement of the OD600nm using a Synergy H1 microplate reader (BioTek). Susceptibility testing was performed in MHB II with a final volume of 100 μL. PAI3N (Bachem Americas) was solubilized in MHB II. […] Solvent controls were included in each plate.
(§3) The Fractional Inhibitory Concentration Index (FICI) was used to assess the synergy of PAI3N in combination with different antibiotics. The FICI represents the ΣFIC of each drug. The FICI for each drug was calculated using the following formula: FICI=FICA+FICB=(CA/MICA)+(CB/MICB). Where MICA and MICB are the MICs of drugs A (PAI3N/NMP) and B (antibiotic) alone, and CA and CB are the MICs of the drugs in combination. The effects of PAβN or NMP in combination with antibiotics were classified as: synergistic (FICI<0.5), additive (FICI>0.5-1.0), indifferent (FICI>1.0-2.0), and antagonistic (FICI>2.0). Fold increases in resistance provided by efflux pumps were calculated by dividing the MIC values of strains expressing efflux pumps by the MIC value of EKO-35.

[11] = system: wild-type K-12-Pore; test: Checkerboard synergy (FICI), porinated strain; settings: K-12 Pore
Experimental: as §2, §3

[12] = Table 14A, porinated, technical duplicate
[13] = EKO-35 araC::emrAB Pore, technical duplicate
[14] = EKO-35 araC::macAB Pore, technical duplicate
[15] = EKO-35 araC::mdtBC Pore, technical duplicate
[16] = EKO-35 araC::mexCD Pore, technical duplicate
[17] = EKO-35 empty pCA24N, Chlor + (4 μg/mL chloramphenicol), 0.1 mM IPTG

Molecule | Fold changes of MICs [1] | Minimum inhibitory concentration, EKO-35 araC::acrB Pore [1, 12] | Fold changes of MICs [2] | Minimum inhibitory concentration, EKO-35 araC::acrEF Pore [2, 12] | Fold changes of MICs [3] | Minimum inhibitory concentration [3, 13] | Fold changes of MICs [4] | Minimum inhibitory concentration [4, 14] | Fold changes of MICs [5] | Minimum inhibitory concentration [5, 15] | Fold changes of MICs [6] | Minimum inhibitory concentration, EKO-35 araC::mdtEF Pore [6] | Fold changes of MICs [7] | Minimum inhibitory concentration [7, 16] | MIC, ΔtolC (empty pCA24N), Chlor − [8] | MIC, ΔtolC (empty pCA24N), Chlor + [8] | MIC, EKO-35 (empty pCA24N), Chlor + ([9]; 0.1 mM IPTG) | MIC, EKO-35 (empty pCA24N), Chlor − ([9]; 0.1 mM IPTG) | MIC ([8]; Escherichia coli, Chlor +) | MIC ([8]; Escherichia coli, Chlor −) | further results
N#Cc1ccc(-c2c(NC(=O)C(Cl)Cl)oc(-c3cccs3)c2C#N)cc1 [compound 2] | 1 fold | 320 µg/mL | 1 fold | 320 µg/mL | 1 fold | 320 µg/mL | 1 fold | 320 µg/mL | 1 fold | 320 µg/mL | 1 fold | 320 µg/mL | 1 fold | 320 µg/mL | 1.25 μg/mL | 1.25 μg/mL | >5 μg/mL | >5 μg/mL | – | – | –
Cn1cc(Br)c(-c2cccc(NC(=O)Nc3ccc(OC(F)(F)F)cc3)c2)n1 [compound 14] | 1 fold | 320 µg/mL | 1 fold | 320 µg/mL | 1 fold | 320 µg/mL | 1 fold | 320 µg/mL | 1 fold | 320 µg/mL | 1 fold | 320 µg/mL | 1 fold | 320 µg/mL | 1.25 μg/mL | 1.25 μg/mL | >5 μg/mL | >5 μg/mL | – | – | –
O=C(Nc1ccccc1C(=O)Nc1nnc(C(F)(F)F)s1)c1ccccc1Cl [compound 19] | 1 fold | 320 µg/mL | 1 fold | 320 µg/mL | 1 fold | 320 µg/mL | 1 fold | 320 µg/mL | 1 fold | 320 µg/mL | 1 fold | 320 µg/mL | 1 fold | 320 µg/mL | 2.5 μg/mL | 2.5 μg/mL | >5 μg/mL | >5 μg/mL | – | – | –
CO[C@@H]1[C@@H](OC(N)=O)[C@@H](O)[C@H](Oc2ccc3c(O)c(NC(=O)c4ccc(O)c(CC=C(C)C)c4)c(=O)oc3c2C)OC1(C)C [novobiocin] | 512 fold | – | 32 fold | – | 8 fold | – | 1 fold | – | 4 fold | – | 16 fold | – | 4 fold | – | – | – | – | – | 1.56 µg/mL (≈ 2.55 µM) | 3.13 µg/mL (≈ 5.11 µM) | MIC ([2]; Escherichia coli, Table 14A, porinated, technical duplicate, read-out: Minimum inhibitory concentration, EKO-35 araC::acrEF Pore): 25 µg/mL; MIC ([3]; Escherichia coli, EKO-35 araC::emrAB Pore, technical duplicate, read-out: Minimum inhibitory concentration): 6.25 µg/mL; MIC ([4]; Escherichia coli, EKO-35 araC::macAB Pore, technical duplicate, read-out: Minimum inhibitory concentration): 0.781 µg/mL; MIC ([5]; Escherichia coli, EKO-35 araC::mdtBC Pore, technical duplicate, read-out: Minimum inhibitory concentration): 3.12 µg/mL; MIC ([7]; Escherichia coli, EKO-35 araC::mexCD Pore, technical duplicate, read-out: Minimum inhibitory concentration): 3.12 µg/mL; MIC [9, 17]: 3.13 µg/mL; MIC ([9]; Escherichia coli, EKO-35 empty pCA24N, Chlor −, 0.1 mM IPTG, read-out: MIC): 3.13 µg/mL (≈ 5.11 µM); fold difference in susceptibility between EKO-35 and ΔtolC ([9]; while profiling the ASKA EKO-35 strains): 2 fold; Effect ([10]; EKO-35 Pore, PAβN + antibiotic): Additive; FICI ([10]; EKO-35 Pore, PAβN + antibiotic): 0.630; MICb Alone ([10]; EKO-35 Pore, antibiotic alone (PAβN checkerboard)): 1 µg/mL; MICb Combined ([10]; EKO-35 Pore, antibiotic in combination with PAβN): 0.13 µg/mL; interaction of PAβN in combination with the labelled antibiotic (FICI) ([10]; porinated efflux-deficient strains): no longer synergistic; Effect ([11]; PAβN + antibiotic): Additive; FICI ([11]; PAβN + antibiotic): 0.508; MICb Alone ([11]; antibiotic alone (PAβN checkerboard)): 16 µg/mL; MICb Combined ([11]; antibiotic in combination with PAβN): 8 µg/mL
COc1cc(Cc2cnc(N)nc2N)cc(OC)c1OC [trimethoprim] | 4 fold | – | 1 fold | – | 2 fold | – | 1 fold | – | 1 fold | – | 2 fold | – | 1 fold | – | – | – | – | – | 1.56 µg/mL (≈ 5.37 µM) | 0.195 µg/mL (≈ 0.672 µM) | MIC ([1]; Escherichia coli, Table 14A, porinated, technical duplicate, read-out: Minimum inhibitory concentration, EKO-35 araC::acrB Pore): 0.781 µg/mL; efflux pump-mediated resistance vs EKO-35-Pore [2]: impacted the ability of AcrEF to confer resistance; MIC ([9]; Escherichia coli): 0.391 µg/mL (≈ 1.35 µM)
benzalkonium chloride | 8 fold | 3.125 µg/mL | 2 fold | 0.781 µg/mL | 1 fold | 0.391 µg/mL | 1 fold | 0.391 µg/mL | 1 fold | 0.195 µg/mL | 4 fold | 1.563 µg/mL | 1 fold | 0.391 µg/mL | – | – | – | – | – | – | efflux pump-mediated resistance vs EKO-35-Pore [2]: impacted the ability of AcrEF to confer resistance; MIC ([8]; Chlor +): 0.781 µg/mL; MIC ([8]; Chlor −): 1.56 µg/mL; MIC [9, 17]: 0.781 µg/mL; MIC ([9]; EKO-35 empty pCA24N, Chlor −, 0.1 mM IPTG): 0.781 µg/mL
